Values quoted from earlier work in US20250134829A1, “LOW-DOSE, STABLE-RELEASE TRANSDERMAL PREPARATION AND PATCH, AND METHOD FOR THEIR PRODUCTION” (PÉCSI TUDOMÁNYEGYETEM, priority 2022, published 2025).

Columns and labels:
[1] = system: capsaicin-sensitive sensory nerve endings; details: high dose (6-8%) of capsaicin locally
[2] = system: patients suffering from low back pain; details: topical nonivamide treatment

Structure (SMILES) | duration of disabling of the capsaicin-sensitive sensory nerve endings (desensitization) [1] | plasma level of the neuropeptide somatostatin [2]
COc1cc(CNC(=O)CCCC/C=C/C(C)C)ccc1O [capsaicin] | 2-3 months | 
CCCCCCCCC(=O)NCc1ccc(O)c(OC)c1 [nonivamide] |  | threefold increase
